In article PMC11188305, “Reproductive and fetal toxicity studies of histamine H3 receptor antagonist DL76 used in mice to prevent maximal electroshock-induced seizure” (Frontiers in Pharmacology, 2024):

Experiments:
[1] = system: experimental seizure models; set-up: method as in earlier work; conditions: acute and chronic experimental seizure models; ref Brown et al., 2001; Vohora et al., 2010; Witkin and Nelson, 2004; Sadek et al., 2015; Bastaki et al., 2018; cited from earlier work
[2] = system: photosensitivity seizure model; set-up: method as in Lamb, 2020; conditions: adult patients; ref Lamb, 2020; cited from earlier work
[3] = system: MES-induced seizures in mice; assay: Maximal electroshock (MES)-induced seizure, duration of tonic hind limb extension (THLE); format: in vivo, C57BL/6J mice
Description: As previously described and with a slight modification in the intensity applied, seizures were elicited in mice with a 50-Hz alternating current of 120 mA intensity ([Kaminski et al., 2015]; [Song et al., 2020]; [Xiao et al., 2021]; [Hua et al., 2023]). The current was applied through ear electrodes for 0.2 s. Protection against the spread of MES-induced convulsion was defined as the abolition of the tonic hind limb extension (THLE) component of the seizure ([Kaminski et al., 2015]; [Song et al., 2020]; [Xiao et al., 2021]; [Hua et al., 2023]). The animals were divided into the following experimental groups, with eight mice in each: the control group injected with saline, the positive control group injected with 300 mg/kg of VPA (the minimal dose of VPA that protected animals against the spread of MES-induced convulsions without mortality in mice) ([Sadek et al., 2015]; [Bastaki et al., 2018]), and four groups that were administered the test compound DL76 at doses of 7.5 mg/kg, 15 mg/kg, 30 mg/kg, or 60 mg/kg. All drugs were administered 30–45 min before the MES challenge. In a further group of eight mice, the most promising and protective dose of DL76 (60 mg/kg, i.p.) was co-injected with RAM (10 mg/kg, i.p.), 30 min apart and 15 min prior to the MES test. Protection against the spread of MES-induced convulsion was defined as the abolition of the THLE component of the convulsion ([Sadek et al., 2015]; [Alachkar et al., 2018]; [Bastaki et al., 2018]).
Statistical analyses employed SPSS 26.0 (IBM Middle East, Dubai, UAE). Data were presented as means ± SEM. […] Fetal abnormality data were presented as counts and percentages. Fisher’s exact test compared the percentages of abnormalities between the control group (saline) and the different dose groups. All tests were two-tailed, and significance was set at p < 0.05.

[4] = system: MES-induced seizures in mice; set-up: method as in Sadek et al., 2015; Bastaki et al., 2018; conditions: ref Sadek et al., 2015, Bastaki et al., 2018; cited from earlier work
C57BL/6 mice = system: C57BL/6 mice; set-up: method as in Chateauvieux et al., 2010; conditions: ref Chateauvieux et al., 2010; cited from earlier work

SMILES: CCC(C)(C)c1ccc(OCCCN2CCCCC2)cc1 [DL77]
- anticonvulsant efficacy [1]: anticonvulsant efficacy

SMILES: Clc1ccc(CCCOCCCN2CCCCC2)cc1 [PIT]
- effects against the photosensitivity seizure model [2]: protective effects

SMILES: CCCC(CCC)C(=O)O [VPA, valproic acid, reference compound]
- difference of protective effects between male and female mice ([3]; VPA 300 mg/kg i.p., p = 0.164): no significant differences
- protection against MES-induced convulsions ([3]; female adult mice, VPA 300 mg/kg i.p.): significantly protected
- minimal dose that protected animals against the spread of MES-induced convulsions without mortality [4]: 300 mg/kg
- malformations (C57BL/6 mice): induce malformations

SMILES: S=C(NC1CCCCC1)N1CCC(c2cnc[nH]2)CC1 [thioperamide]
- anticonvulsant efficacy [1]: anticonvulsant efficacy

SMILES: C[C@@H](N)Cc1c[nH]cn1 [RAM, (R)-α-methylhistamine, reference compound]
- effect of RAM alone on MES-induced convulsions ([3]; female adult mice, RAM 10 mg/kg i.p., p = 0.91 saline-saline vs. saline-RAM): results similar to those witnessed in male adult mice
- effect on MES-induced convulsions when injected alone ([3]; male adult mice, RAM 10 mg/kg i.p., p = 0.602): did not affect MES-induced convulsions
- activity of RAM injected alone in MES-induced convulsion ([3]; mice, both sexes, RAM 10 mg/kg): neither a protective nor an epileptogenic activity
